One assay has as its system KPC tumor cells. The experiment in a line: growth of KPC tumor cells from mouse model of PDAC. In kind it is cell-based. From the text:
The effects of the ligands and derivatives on the growth of PDAC cells were further validated by cell counting and clonogenic assays.

The subject of a further assay is human PDAC cell lines. The experiment in a line: cell viability response curves with increasing concentrations. The class given is cell-based.
The test system of assay [1] is LXR target genes SREBF1c, ABCA1, and ABCG1. The experiment in a line: expression of LXR target genes in pancreatic cancer cell lines. The class given is cell-based, human. From the text: To characterize the activity of the newly discovered ligands, the expression of LXR target genes SREBF1c, ABCA1, and ABCG1 was examined following treatment with vehicle, synthetic agonist GW3965, and Compounds 1E5 and 3A4. […] Basal expression of SREBF1c, the canonical LXR target gene involved in the regulation of glucose and lipid metabolism, was disrupted by the addition of novel LXR ligands, whereas their expression was induced following treatment with synthetic agonist GW3965 in all three pancreatic cancer cell lines tested, whereas the effects on ABCA1 and ABCG1 varied between the two novel ligands and across the cell lines.
(§1) To elucidate mechanisms of inverse agonism by the novel ligands, TR-FRET experiments were conducted to determine the effects of 1E5 and 3A4 on the recruitment of NR co-activators and co-repressors. […] In addition to their functions as inverse agonists, extended treatments with 1E5 and 3A4 also destabilized or decreased LXR proteins.

Assay [2] concerns LXR ligand-binding domain. Nature of the assay: TR-FRET assay of co-activator and co-repressor peptide recruitment. The class given is biochemical. On the procedure: as §1
The synthesis and characterization of KD-01-39, a derivative of 3A4, have not been described previously.
(In general: Time-resolved FRET reads energy transfer from a long-lived donor to a nearby acceptor.)

A further assay deals with T1, LXR proteins (Homo sapiens, UniProt P55055).
T1 construct: expression of LXR proteins in different pancreatic cancer cell lines following long-term treatments; endogenous in cells; host or cells: pancreatic cancer cell lines (BxPC-3, MIA PaCa-2, PANC-1 named elsewhere)
T1 sequence (P55055 whole entry): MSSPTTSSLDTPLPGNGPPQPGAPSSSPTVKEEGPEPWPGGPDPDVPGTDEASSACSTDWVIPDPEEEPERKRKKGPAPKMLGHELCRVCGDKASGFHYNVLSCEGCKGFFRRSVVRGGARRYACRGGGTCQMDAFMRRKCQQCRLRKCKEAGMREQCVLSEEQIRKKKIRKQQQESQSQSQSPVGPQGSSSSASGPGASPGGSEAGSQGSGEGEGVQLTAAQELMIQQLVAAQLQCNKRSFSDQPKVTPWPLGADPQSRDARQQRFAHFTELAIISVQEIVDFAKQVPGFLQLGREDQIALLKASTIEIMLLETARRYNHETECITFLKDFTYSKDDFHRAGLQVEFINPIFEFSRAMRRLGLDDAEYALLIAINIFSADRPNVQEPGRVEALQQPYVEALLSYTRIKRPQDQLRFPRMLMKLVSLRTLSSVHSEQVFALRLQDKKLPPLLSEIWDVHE
Nature of the assay: LXR protein levels after long-term treatment of pancreatic cancer cells. The class given is cell-based. The settings on record: long-term treatments. On the procedure: as §1

In a further assay the test system is PDAC cells. Nature of the assay: enzymatic assay of glutamate levels. In kind it is cell-based, human. How it is done:
To further characterize the mechanisms of action of novel LXR modulators 1E5 and 3A4, metabolomic and transcriptomic analysis of pancreatic cancer cells were conducted in response to treatment. […] PDAC tumors have altered metabolism to support its growth and survival. Previous studies have reported that Kras upregulates the non-canonical use of glutamine to maintain NADPH/NADP+ ratio which in turn regulates redox homeostasis. This unconventional use of glutamine by PDAC cells fuel cancer cell proliferation and survival. Glutamine metabolism in PDAC has two unique functions: 1. Glutamine-derived Glutamate is used for glutathione (GSH) biosynthesis. 2. Glutamine facilitates generation of reducing equivalents in the form of NADPH. In PDAC mitochondria, glutamine is converted to glutamate by glutaminase enzyme (GLS1). This glutamine derived glutamate is conventionally converted to alpha-ketoglutarate by glutamate dehydrogenase (GLUD1) to fuel citric acid cycle. However, in PDAC cells glutamate is converted to aspartate in cytosol which is converted to malic acid and NADPH is produced during this process. This process is essential to maintain redox homeostasis in the tumor. However, this non-canonical use of glutamine is dispensable in non-malignant cells. […]

The subject of the next assay is GLS1 and GOT2. The experiment in a line: qPCR of genes involved in glutamine metabolism. The class given is cell-based, human. The settings on record: PDAC cells. From the text: TCA cycle intermediates act as anaplerotic substrate for gluconeogenesis and lipogenesis. […] GOT2 converts glutamine-derived glutamate to alpha-KG. During this process oxaloacetate is converted to aspartate which is required to maintain redox homeostasis. Studies have shown that inhibition of GOT2 in PDAC promotes senescence.
For orientation: In qPCR the cycle at which signal appears reflects the starting amount.

This note sets out measurements from patent US20220273658A1, “SMALL MOLECULE LIVER X RECEPTOR MODULATORS AND USES THEREOF” (University of Houston System, priority 2019, published 2022).

On to `O=c1cc(-c2ccccc2)nc(Nc2cccc(C(F)(F)F)c2)[nH]1` [Compound 1E5, 6-phenyl-2-{[3-(trifluoromethyl)phenyl]amino}-3,4-dihydropyrimidin-4-one], for which, in the assay on KPC tumor cells, the “growth of KPC tumor cells” value was “blocked the growth”. Besides, the “potency in response curves compared to GW3965” value in the assay with human PDAC cell lines is reported as “more potent activity as compared to GW3965”. Further, the “basal expression of SREBF1c” value in assay [1] (all three pancreatic cancer cell lines) was “disrupted”. In addition, in assay [1] (pancreatic cancer cells), the “expression of FASN, SCD, and ACC” value is “decreased the expression”. In addition, in assay [1] (three pancreatic cancer cell lines), the “expression of LXR target genes” value is reported as “reducing the expression of LXR target genes”. Moreover, the “co-activator peptide binding to LXR ligand-binding domain” value in assay [2] (co-activator (D22) peptide) is listed as “did not affect co-activator peptide binding”. Besides, in assay [2] (co-repressor (NCOR and SMRT-ID2) peptides), the “binding of NCOR and SMRT co-repressor peptides” value is on record as “increased the binding”. Moreover, the LXR protein levels entry at LXR proteins is recorded as “decreased LXR protein levels”. For the same molecule, in the assay with PDAC cells (1E5 plus glutaminase inhibitor BPTES), the “glutamate levels, combination treatment with BPTES” value was “synergistic effects on reducing the glutamate levels”. Besides, in the assay with PDAC cells (treated for 48 hours), the “intracellular levels of glutamate” value was “significantly reduced”. In addition, the “expression of GLS1 and GOT2” value in the assay with GLS1 and GOT2 is reported as “downregulated the expression”.
